The source of these data is article PMC9126886, “Yeast-based directed-evolution for high-throughput structural stabilization of G protein-coupled receptors (GPCRs)” (Scientific Reports, 2022).

Experiment in all cases: saturation binding of fluorescent ligand, flow cytometry, permeabilized yeast
Common to all, as to assay type: cell-based
Holding throughout (conditions): PBS, 1% DMSO, 22 °C, 1 h; apparent affinity; labelled compound (fluorescent ligand itself); no G protein
On the technique in general: In flow cytometry, cells or beads pass a laser one at a time.

Experiment [1] deals with T1, A2aR (Homo sapiens, UniProt P29274).
T1 construct: gene ADORA2A; full-length receptor with C-terminus (positions to 412), N-terminal synthetic pre-pro leader, no eGFP; pYES2 (subcloned from pITy-MC-His10), permeabilized S. cerevisiae BY4741
T1 sequence (P29274 whole entry): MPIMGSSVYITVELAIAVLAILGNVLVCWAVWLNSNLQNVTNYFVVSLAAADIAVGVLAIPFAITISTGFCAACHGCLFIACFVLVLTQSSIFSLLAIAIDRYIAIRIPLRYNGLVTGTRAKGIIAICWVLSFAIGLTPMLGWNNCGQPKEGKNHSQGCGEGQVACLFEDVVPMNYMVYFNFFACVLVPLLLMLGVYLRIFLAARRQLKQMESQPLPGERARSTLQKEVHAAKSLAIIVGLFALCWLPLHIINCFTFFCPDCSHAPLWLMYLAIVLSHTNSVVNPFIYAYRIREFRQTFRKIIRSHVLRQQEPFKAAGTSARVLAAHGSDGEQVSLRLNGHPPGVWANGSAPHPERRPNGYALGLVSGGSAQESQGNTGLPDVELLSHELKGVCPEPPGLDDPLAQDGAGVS
The source says:
(§1) saturation binding of fluorescent ligand, flow cytometry, permeabilized yeast on A2aR

Experiment [2] deals with T2, A2aR (Homo sapiens, UniProt P29274, N34K).
T2 construct: gene ADORA2A; full-length receptor with C-terminus (positions to 412), N-terminal synthetic pre-pro leader, no eGFP; pYES2 (subcloned from pITy-MC-His10), permeabilized S. cerevisiae BY4741
T2 sequence (P29274 whole entry N34K): as the sequence (P29274 whole entry) above, with N34K counted along it
Source text: as §1

Experiment [3] addresses T3, A2aR (Homo sapiens, UniProt P29274, P313S/P354A).
T3 construct: gene ADORA2A; full-length receptor with C-terminus (positions to 412), N-terminal synthetic pre-pro leader, no eGFP; pYES2 (subcloned from pITy-MC-His10), permeabilized S. cerevisiae BY4741
Source text: as §1

T3 sequence (P29274 whole entry P313S/P354A): as the sequence (P29274 whole entry) above, with P313S, P354A counted along it

As for CA200623, the “logEC50 ± SE^c” value on A2aR [1] is listed as −8.01 ± 0.06; at A2aR [2], −7.78 ± 0.04; at A2aR [3] it was −8.90 ± 0.03.
